These results are taken from PubChem BioAssay (NCI).

Assay in all cases: NCI tumour cell line growth inhibition, 48 h
Assay [1] deals with DU-145 prostate.
The subject of assay [2] is HS 578T breast.
Assay [3] relates to M14 melanoma.
The subject of assay [4] is OVCAR-3 ovarian.
Assay [5] deals with PC-3 prostate.
For assay [6], the system named is RPMI-8226 leukemia.
The test system of assay [7] is SF-268 CNS.
For assay [8], the system named is SK-MEL-2 melanoma.
The test system of assay [9] is SK-MEL-5 melanoma.
Assay [10] has as its system U251 CNS.

Each structure is given as a SMILES string. “And” between values parts separate entries of the source, which are not always exact repeats. Equal values may be shown once.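 Values below derive from 48-hour exposures of cells grown in 96-well plates, with endpoints linearly interpolated between the two concentrations bracketing the appropriate inhibition level. The concentration for 50% growth inhibition is given as GI50. TGI is the concentration that stops growth completely.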

On to `COc1cc(C[C@H]2c3cc(OC)c(OC)cc3CCN2C)c(Oc2cc3c(cc2OC)-c2c(OC)c(OC)cc4c2[C@H](C3)N(C)CC4)cc1OC`, for which the TGI in assay [1] was 39.6 µM; in assay [2], 13.1 µM; in [3], 4.36 µM and 3.48 µM; in [4], 23.6 µM and 24.8 µM; in [5], 33.7 µM; in [6], 25.5 µM and 15.4 µM. Also, the TGI was 31 µM and 28.4 µM in [7]; 18.5 µM and 28.8 µM in [8]; 11.1 µM and 3.58 µM in assay [9]; 8.95 µM and 22.7 µM in assay [10]. Besides, the GI50 in assay [3] is 1.9 µM; in assay [4] it was 11.8 µM; in assay [6], 3.22 µM; in [7], 14.3 µM; in assay [8], 14.9 µM; in assay [9] it was 1.97 µM. For the same molecule, in assay [10], the GI50 was 10.7 µM.
Take `COC(=O)c1nc(-c2ccccc2)oc1S(=O)(=O)Cc1ccccc1`: the GI50 was 3.46 µM in [1]; 19.2 µM in assay [2]; 3.87 µM in assay [3]; 1.94 µM in assay [4]; 15 µM in assay [5]; 3.05 µM in assay [6]. For the same molecule, the results for the GI50 in assay [7], in [8] and in [10] were 16.1 µM, 12.7 µM and 15.5 µM, respectively. The TGI in assay [1] is 10.9 µM; in assay [2], 60.1 µM; in [3] it was 16.3 µM; in [4] it was 3.52 µM; in [5], 29.4 µM; in assay [6] it was 9.51 µM. Besides, the TGI was determined as 32.8 µM in assay [7], 26.9 µM in [8] and 29 µM in assay [10].
Consider `C(#Cc1ccccc1C#Cc1cccs1)c1cccs1`, for which the GI50 is more than 100 µM in assay [1]; 32.9 µM in assay [3]; 57.1 µM in [4]; 25.4 µM in [5]; more than 100 µM in [7]; 41.7 µM in [8]. Further, the GI50 was 23.6 µM in [9] and 66.8 µM in assay [10]. In addition, the TGI in assay [1], in [3], in [4], in assay [5], in [7] and in assay [8] was more than 100 µM each time. Moreover, the TGI in assay [9] and in assay [10] was more than 100 µM each time.
Take `Nc1c(C(=O)c2cccc(-c3ccncc3)c2)cnn1-c1ccc(F)cc1F`: the GI50 in assay [1] was more than 22.1 µM; in assay [2], more than 25 µM; in assay [3], 6.58 µM; in assay [4] it was 9.08 µM; in [5], 4.83 µM; in assay [6], 6.16 µM. Also, the GI50 is more than 19.7 µM in assay [7], 6.43 µM in assay [8], 1.68 µM in assay [9] and 12.6 µM in assay [10]. Further, the TGI in [1], in assay [2], in assay [3], in assay [4], in assay [5] and in [6] was more than 25 µM in each case. Moreover, the TGI was more than 25 µM in [7], more than 19.7 µM in [8], 8.49 µM in assay [9] and more than 25 µM in [10].
With `COc1ccc(-c2cc(=O)[nH]c3c(OC)c4ccccc4c(OC)c23)cc1`, the GI50 in assay [1] is 0.671 µM; in assay [2] it was 0.345 µM; in assay [3], 0.388 µM; in assay [4], 0.165 µM; in assay [5], 0.382 µM; in [6] it was 0.289 µM. In addition, the GI50 in assay [7] is 0.552 µM; in [8], 0.486 µM; in [9] it was 0.398 µM; in assay [10], 0.419 µM. Moreover, the TGI in assay [1] was more than 100 µM; in assay [4], 0.713 µM; in assay [5], more than 100 µM; in assay [6], more than 20.2 µM; in [7], more than 100 µM; in assay [8], more than 100 µM. The TGI in assay [9] and in assay [10] was more than 100 µM throughout.
On to `CN(C)CCN1C(=O)c2ccccc2N(C)c2ccccc21`, for which the GI50 in assay [1], in assay [2], in [3], in assay [4], in assay [5] and in assay [6] was more than 100 µM throughout. Also, the GI50 in assay [7], in assay [8], in [9] and in assay [10] was more than 100 µM each time. Further, the TGI in [1], in assay [2], in assay [3], in assay [4], in assay [5] and in assay [6] was more than 100 µM each time. In addition, the TGI in assay [7], in [8], in [9] and in [10] was more than 100 µM throughout.
As for `Cc1cc2c(cc1C)N(C(=O)CCl)CC(=O)N2`, the GI50 in assay [1] is 3.49 µM; in assay [2] it was 4.08 µM; in [3] it was 2.2 µM; in assay [4], 1.89 µM; in assay [5], 4.48 µM; in assay [6], 2.35 µM. Also, the GI50 in assay [7] was 3.47 µM; in assay [8], 4.2 µM; in assay [9] it was 3.48 µM; in assay [10], 1.92 µM. Moreover, the TGI in [1] was determined as 10.2 µM; in assay [2] it was 68.8 µM; in [3], 8.35 µM; in assay [4], 3.33 µM; in assay [5] it was 18.9 µM; in [6] it was 7.15 µM. Moreover, the TGI was 11.6 µM in assay [7], 14.4 µM in assay [8], 13.6 µM in [9] and 4.25 µM in assay [10].
`CC/C=C1/C(=O)C=C[C@@H]1C/C=C\CCCC(=O)OC`: the GI50 is 4.56 µM in [1]; 2.8 µM in assay [3]; 3.05 µM in [4]; 3.02 µM in assay [5]; 0.699 µM in assay [6]; 3.03 µM in assay [7]. Also, the GI50 was 2.24 µM in assay [8], 1.77 µM in assay [9] and 2.75 µM in assay [10]. In addition, the TGI was determined as 16.4 µM in assay [1]; 10.8 µM in assay [3]; 10.2 µM in assay [4]; 8.56 µM in assay [5]; 5.54 µM in assay [6]; 13.1 µM in assay [7]. Moreover, the figures for the TGI in assay [8], in assay [9] and in assay [10] were 6.94 µM, 3.2 µM and 9.96 µM, respectively.
